{"source": "patent US10251860B2", "about": "“Compounds for bone healing” (University of Pittsburgh—Of the Commonwealth System of …, priority 2015, dated 2019)", "system": "fibrotic phase associated RNA (TGF-β, TLR4, TLR7), bromodomain transcripts", "assay": "RT-PCR of irradiation induced gene transcripts in lung", "assay_type": "in vivo, mouse", "settings": "20 Gy thoracic irradiation, MMS350 in drinking water", "experimental": "To isolate different cellular compartments of the lung, mice were sacrificed and the pulmonary cavity was opened, and lungs perfused by injecting 5 ml of phosphate-buffered saline (PBS) into the right ventricle of the heart. To isolate pulmonary endothelial cells, the lungs were filled with 1 ml of dispase (39.65 mg/ml), allowed to collapse, and then expanded with 0.5 ml of a 1% low-melt agarose, which had been stored at 45° C. in a water bath. The lungs were immediately covered with ice and incubated for 2 minutes. […] The cells were analyzed by flow cytometry with PECAM+ endothelial cells and PECAM− and CD45− cells alveolar cells isolated.\nRNA was extracted from mouse lung or purified cell populations using the TRIzol reagent (Invitrogen, Carlsbad, Calif.) following the manufacturer's instructions, quantified using a spectrophotometer, and stored at −80° C. […]", "note": "Entries after “also recorded” stand apart in the source; their conditions may differ."}
{"compound": "CC1(C[S+]([O-])CC2(C)COC2)COC1", "note": "[Compound 3, 3,3′-Sulfinylbis(methylene)bis(3-methyloxetane)]", "values": [{"measurement": "bromodomain transcripts", "result": "little effect on bromodomain transcripts"}, {"measurement": "expression of fibrosis phase mRNA", "result": "decreased expression of fibrosis phase mRNA expression; also recorded: downregulation of transcription of mRNA associated with the late pulmonary fibrotic reaction"}]}
